The subject of data set [1] is RAW 267.4 cells. In words: ApoTox-Glo Triplex assay in RANKL treated osteoclast cells. The data set is classed as cell-based, mouse. The settings on record: 72 hours after treatment. The protocol:
FIG. 5 represents the improved efficacy seen with KBU2046 combined with ZA. In FIG. 5A bone degradation was tested using osteo assays performed as in FIG. 4D. Cells were treated with KBU2046 (46), ZA at 2, 10 or 20 μM, with the indicated combinations, or vehicle (control; CO). Data are the mean±SEM (N=3 replicates); * denotes P<0.05 compared to control, or between conditions denoted by bars. FIG. 5B provides representative photomicrographs of osteo assay wells. Black color denotes presence of bone matrix; RL: RANKL. (FIGS. 5C-5E) Cell viability, cytotoxicity and apoptosis. RAW 267.4 cells were treated with RANKL, at day 4 they were treated with KBU2046, ZA at 1 or 10 μM (ZA1 or ZA10), the indicated combination, or vehicle (CO) and Triplex assay performed 24, 48 or 72 hours later, per Methods. Data are the mean±SEM (N=4 replicates); ¥, #, * denotes P<0.05 compared to control. (FIGS. 5F-5H) In vivo efficacy. Four cohorts of mice, N=15/cohort, were given intracardiac injections of PC3-luc cells, yielding the following successful injections: N=12 control, N=12 ZA, N=13 KBU2046 and N=13 ZA+KBU2046. Treatment was oral 150 mg KBU2046/kg daily (starting 3 days before IC injection), intraperitoneal ZA 100 μg/kg weekly (starting 1 week before IC injection), with oral and intraperitoneal vehicle controls given as indicated. […] (FIGS. 5C and 5D) Quantification of bone lesions. The macroscopic lesions in the jaw were quantified by direct measurement from CT images, and expressed as the mean±SEM percent of control. Bone density of femurs was measured from CT images, and expressed as the mean±SEM percent of control. * denotes P<0.05 compared to control, and for groups indicated by bars.
We next examined the effect of ZA and KBU2046 on osteoclast cell viability, apoptosis and cytotoxicity. RAW 267.4 cells were treated with RANKL for the duration of the experiment, at day 4 they were then treated with ZA, KBU2046, the combination, or vehicle (for controls), and effect on cell viability, apoptosis and cytotoxicity measured by Triplex assay at 24, 48 and 72 hours after treatment (FIGS. 5C-5E). […]

The test system of data set [2] is LNCaP/AR-luc cells. In words: Castration resistant PCa orthotopic implantation, tumor outgrowth. The format is in vivo, mice. The following applies: orthotopic implants, 80 mg/kg KBU2046 oral, treatment from 12 weeks. As for the experimental part:
To complete our assessments of the androgen related paradigm, the effect of KBU2046 on resistance to hormone therapy was evaluated. The outgrowth of LNCaP/AR-luc cells in castrate mice is routinely utilized as a model to emulate the transition to a castration resistant phenotype (Tran et al., Science 324, 787-790 (2009)). In this model, tumor outgrowth is detectable ˜8 weeks post implantation, and growth kinetics are typically monitored until 16 weeks post implantation. Here, two treatment approaches were investigated, the effects of beginning treatment early at 4 weeks, or late at 12 weeks, and were performed in mice receiving subcutaneous or orthotopic implants, respectively (FIGS. 3F and 3G).
LNCaP or VCaP cells cultured in hormone free media were treated with R1881 (R), KBU2046 (46) and/or enzalutamide (E). (FIGS. 3A and 3B) Effects on AR-responsive gene expression. PSA expression was measured by qRT/PCR, normalized to GAPDH and expressed as a percent of control cells (N=3 replicates); * denotes P<0.05 for groups separated by bar. (FIGS. 3C and 3D) Effects on cell growth. Three day growth assays were performed. Data are the number of viable cells, expressed as % of control (N=3 replicates); * P<0.05 compared to control. (E) Effects on AR activation. […] Data are tumor size, expressed as luminescence intensity. All data are expressed as mean±SEM. […]

The test system of data set [3] is LNCaP/AR-luc cells. In words: Castration resistant PCa subcutaneous implantation, tumor outgrowth. The settings on record: subcutaneous implants, 80 mg/kg KBU2046 oral, treatment from 4 weeks. The data set is classed as in vivo, mice. As for the experimental part: To complete our assessments of the androgen related paradigm, the effect of KBU2046 on resistance to hormone therapy was evaluated. The outgrowth of LNCaP/AR-luc cells in castrate mice is routinely utilized as a model to emulate the transition to a castration resistant phenotype (Tran et al., Science 324, 787-790 (2009)). In this model, tumor outgrowth is detectable ˜8 weeks post implantation, and growth kinetics are typically monitored until 16 weeks post implantation. […]
LNCaP or VCaP cells cultured in hormone free media were treated with R1881 (R), KBU2046 (46) and/or enzalutamide (E). […] PSA expression was measured by qRT/PCR, normalized to GAPDH and expressed as a percent of control cells (N=3 replicates); * denotes P<0.05 for groups separated by bar. […] Data are the number of viable cells, expressed as % of control (N=3 replicates); * P<0.05 compared to control. […] Data are tumor size, expressed as luminescence intensity. All data are expressed as mean±SEM.
Castration resistant PCa subcutaneous implantation: 6-7 week old male athymic mice received trans-scrotal bilateral orchiectomy with a single incision in the midline of scrotums under general anesthesia and then allowed to recover for 10 days. […] Twice weekly tumor measurements were performed and androgen receptor activity monitored biweekly through IVIS imaging.

The record followed here is patent publication US20220133894A1, “BISPHOSPHONATE-LINKED COMPOUNDS” (OREGON HEALTH & SCIENCE UNIVERSITY, priority 2019, published 2022).

On to `O=C1c2ccccc2OCC1c1ccc(F)cc1` (centres unmarked) [KBU2046, 3-(4-fluorophenyl)chroman-4-one], for which, in data set [1] (compared to control), the cell viability entry is “significant increases”. In addition, in data set [1] (compared to control), the cytotoxicity result is given as “decreases”. Also, in data set [1] (compared to controls), the apoptosis result is “significant increase”. Besides, the “tumor growth (outgrowth in castrate mice)” value in data set [2] and in data set [3] was “did not alter” each time.
